Activity calls are given as the source filed them.
What was measured:
Format in all cases: functional
[1] = target: Vascular endothelial growth factor receptor 1 (Homo sapiens, UniProt P17948);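 further: measured within a kinome-wide profiling panel, FLT1 as the panel member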
[2] = target: Platelet-derived growth factor receptor beta (Homo sapiens, UniProt P09619);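 further: value comes from a kinome panel, with PDGFRB tested as one panel member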
[3] = target: Mitogen-activated protein kinase 8 (Homo sapiens, UniProt P45983);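 further: value comes from one member of a kinome-wide kinase profiling panel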
[4] = target: Dual specificity tyrosine-phosphorylation-regulated kinase 1A (Homo sapiens, UniProt Q13627);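 further: measured against DYRK1A as one member of a broad kinome profiling panel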
LIM domain kinase 1 = LIM domain kinase 1 (Homo sapiens, UniProt P53667); experiment: Navigating the Kinome. Panel member name: LIMK1
Activated CDC42 kinase 1 = Activated CDC42 kinase 1 (Homo sapiens, UniProt Q07912); experiment: Navigating the Kinome. Panel member name: ACK1
[5] = target: Tyrosine-protein kinase JAK3 (Homo sapiens, UniProt P52333)
[6] = target: Serine/threonine-protein kinase Chk1 (Homo sapiens, UniProt O14757);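 further: measured as one member of a kinome-wide kinase profiling panel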
[7] = target: Dual specificity mitogen-activated protein kinase kinase 2 (Homo sapiens, UniProt P36507); experiment: Navigating the Kinome. Panel member name: MAP2K2
[8] = target: Cyclin-dependent kinase 9 (Homo sapiens, UniProt P50750);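 further: value from the CDK9 entry of a kinome-spanning kinase panel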
Chain of Cyclin-dependent kinase 9 (P50750 whole entry): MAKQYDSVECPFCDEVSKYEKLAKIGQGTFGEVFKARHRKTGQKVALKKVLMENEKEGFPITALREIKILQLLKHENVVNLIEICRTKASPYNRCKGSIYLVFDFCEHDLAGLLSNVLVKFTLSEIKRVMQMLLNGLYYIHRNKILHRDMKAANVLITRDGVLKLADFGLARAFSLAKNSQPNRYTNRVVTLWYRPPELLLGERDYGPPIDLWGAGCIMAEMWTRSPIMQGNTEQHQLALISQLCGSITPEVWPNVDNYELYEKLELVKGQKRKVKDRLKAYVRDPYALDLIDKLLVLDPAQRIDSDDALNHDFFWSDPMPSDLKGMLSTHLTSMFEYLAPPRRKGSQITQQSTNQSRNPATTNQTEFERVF

[9] = target: Proto-oncogene tyrosine-protein kinase receptor Ret (Homo sapiens, UniProt P07949);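 further: measured within a kinome-wide profiling panel, RET as the panel member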
[10] = target: Tyrosine-protein kinase receptor TYRO3 (Homo sapiens, UniProt Q06418);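 further: TYRO3 value obtained as one member of a kinome-wide profiling panel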
Aurora kinase A = Aurora kinase A (Homo sapiens, UniProt O14965);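 further: value from the Navigating the Kinome kinase panel profiling, panel entry STK6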
[11] = target: ALK tyrosine kinase receptor (Homo sapiens, UniProt Q9UM73);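 further: ALK tested as one member of a kinase panel screen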
[12] = target: Dual specificity protein kinase CLK4 (Homo sapiens, UniProt Q9HAZ1)
Chain of Dual specificity protein kinase CLK4 (Q9HAZ1 whole entry): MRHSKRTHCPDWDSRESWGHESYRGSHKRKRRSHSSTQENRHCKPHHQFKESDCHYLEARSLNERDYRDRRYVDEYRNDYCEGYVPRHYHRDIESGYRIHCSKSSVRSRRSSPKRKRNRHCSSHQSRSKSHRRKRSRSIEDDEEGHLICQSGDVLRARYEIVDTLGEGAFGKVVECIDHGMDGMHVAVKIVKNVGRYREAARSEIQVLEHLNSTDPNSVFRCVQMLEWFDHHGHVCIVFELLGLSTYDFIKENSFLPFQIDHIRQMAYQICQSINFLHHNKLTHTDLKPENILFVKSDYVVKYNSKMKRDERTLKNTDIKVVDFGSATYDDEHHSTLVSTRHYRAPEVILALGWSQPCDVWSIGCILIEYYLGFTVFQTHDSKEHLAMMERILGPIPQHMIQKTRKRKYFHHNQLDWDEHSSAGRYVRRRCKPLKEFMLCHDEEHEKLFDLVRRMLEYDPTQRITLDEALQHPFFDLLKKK

[13] = target: Cyclin-dependent kinase 8 (Homo sapiens, UniProt P49336); experiment: Navigating the Kinome. Panel member name: CDK8
Chain of Cyclin-dependent kinase 8 (P49336 whole entry): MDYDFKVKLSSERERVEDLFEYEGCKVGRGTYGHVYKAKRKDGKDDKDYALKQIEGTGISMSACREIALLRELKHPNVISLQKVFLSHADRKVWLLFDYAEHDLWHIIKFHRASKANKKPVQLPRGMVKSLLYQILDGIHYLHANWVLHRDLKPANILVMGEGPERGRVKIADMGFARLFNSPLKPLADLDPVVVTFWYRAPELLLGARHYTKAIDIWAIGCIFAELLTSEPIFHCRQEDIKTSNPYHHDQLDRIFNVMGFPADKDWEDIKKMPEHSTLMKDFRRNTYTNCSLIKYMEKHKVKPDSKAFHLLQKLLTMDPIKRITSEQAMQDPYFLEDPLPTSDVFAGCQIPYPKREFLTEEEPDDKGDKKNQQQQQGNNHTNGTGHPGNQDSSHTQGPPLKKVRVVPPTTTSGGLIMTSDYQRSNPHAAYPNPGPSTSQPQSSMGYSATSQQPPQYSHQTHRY

Focal adhesion kinase 1 = Focal adhesion kinase 1 (Homo sapiens, UniProt Q05397);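 further: measured as one member of a kinome panel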
Chain of Focal adhesion kinase 1 (Q05397 whole entry): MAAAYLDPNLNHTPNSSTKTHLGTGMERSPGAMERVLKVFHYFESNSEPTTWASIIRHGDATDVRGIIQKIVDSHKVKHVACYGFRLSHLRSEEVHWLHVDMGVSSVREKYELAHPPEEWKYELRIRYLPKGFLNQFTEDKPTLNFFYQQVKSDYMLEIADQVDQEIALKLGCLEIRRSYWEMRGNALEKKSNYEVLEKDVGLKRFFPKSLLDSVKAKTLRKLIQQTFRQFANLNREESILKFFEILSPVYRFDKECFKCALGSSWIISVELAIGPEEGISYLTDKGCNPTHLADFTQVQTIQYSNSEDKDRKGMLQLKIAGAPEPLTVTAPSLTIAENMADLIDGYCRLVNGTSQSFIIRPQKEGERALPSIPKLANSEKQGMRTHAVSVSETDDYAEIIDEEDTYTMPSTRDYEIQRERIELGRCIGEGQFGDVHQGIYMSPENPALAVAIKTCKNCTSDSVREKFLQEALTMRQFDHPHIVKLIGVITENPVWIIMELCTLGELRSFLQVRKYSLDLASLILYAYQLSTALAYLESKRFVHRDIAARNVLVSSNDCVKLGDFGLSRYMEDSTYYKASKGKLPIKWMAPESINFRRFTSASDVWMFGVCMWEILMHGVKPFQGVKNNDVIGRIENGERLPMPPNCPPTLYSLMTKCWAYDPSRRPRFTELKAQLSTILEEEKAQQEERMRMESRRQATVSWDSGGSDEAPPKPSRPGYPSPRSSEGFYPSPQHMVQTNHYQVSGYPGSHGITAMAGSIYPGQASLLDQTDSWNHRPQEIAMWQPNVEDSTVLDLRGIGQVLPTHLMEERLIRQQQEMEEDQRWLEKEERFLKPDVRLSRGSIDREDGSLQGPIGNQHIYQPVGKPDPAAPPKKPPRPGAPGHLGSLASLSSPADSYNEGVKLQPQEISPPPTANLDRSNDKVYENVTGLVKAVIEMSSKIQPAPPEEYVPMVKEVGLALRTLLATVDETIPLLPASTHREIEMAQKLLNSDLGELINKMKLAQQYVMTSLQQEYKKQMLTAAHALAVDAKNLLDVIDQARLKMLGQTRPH

[14] = target: Fibroblast growth factor receptor 1 (Homo sapiens, UniProt P11362)
[15] = target: Receptor-type tyrosine-protein kinase FLT3 (Homo sapiens, UniProt P36888);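 further: FLT3 was tested as one member of a kinome-wide kinase panel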
[16] = target: Serine/threonine-protein kinase TAO1 (Homo sapiens, UniProt Q7L7X3)
[17] = target: Tyrosine-protein kinase JAK2 (Homo sapiens, UniProt O60674);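 further: JAK2 tested as one member of a kinase panel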
Chain of Tyrosine-protein kinase JAK2 (O60674 whole entry): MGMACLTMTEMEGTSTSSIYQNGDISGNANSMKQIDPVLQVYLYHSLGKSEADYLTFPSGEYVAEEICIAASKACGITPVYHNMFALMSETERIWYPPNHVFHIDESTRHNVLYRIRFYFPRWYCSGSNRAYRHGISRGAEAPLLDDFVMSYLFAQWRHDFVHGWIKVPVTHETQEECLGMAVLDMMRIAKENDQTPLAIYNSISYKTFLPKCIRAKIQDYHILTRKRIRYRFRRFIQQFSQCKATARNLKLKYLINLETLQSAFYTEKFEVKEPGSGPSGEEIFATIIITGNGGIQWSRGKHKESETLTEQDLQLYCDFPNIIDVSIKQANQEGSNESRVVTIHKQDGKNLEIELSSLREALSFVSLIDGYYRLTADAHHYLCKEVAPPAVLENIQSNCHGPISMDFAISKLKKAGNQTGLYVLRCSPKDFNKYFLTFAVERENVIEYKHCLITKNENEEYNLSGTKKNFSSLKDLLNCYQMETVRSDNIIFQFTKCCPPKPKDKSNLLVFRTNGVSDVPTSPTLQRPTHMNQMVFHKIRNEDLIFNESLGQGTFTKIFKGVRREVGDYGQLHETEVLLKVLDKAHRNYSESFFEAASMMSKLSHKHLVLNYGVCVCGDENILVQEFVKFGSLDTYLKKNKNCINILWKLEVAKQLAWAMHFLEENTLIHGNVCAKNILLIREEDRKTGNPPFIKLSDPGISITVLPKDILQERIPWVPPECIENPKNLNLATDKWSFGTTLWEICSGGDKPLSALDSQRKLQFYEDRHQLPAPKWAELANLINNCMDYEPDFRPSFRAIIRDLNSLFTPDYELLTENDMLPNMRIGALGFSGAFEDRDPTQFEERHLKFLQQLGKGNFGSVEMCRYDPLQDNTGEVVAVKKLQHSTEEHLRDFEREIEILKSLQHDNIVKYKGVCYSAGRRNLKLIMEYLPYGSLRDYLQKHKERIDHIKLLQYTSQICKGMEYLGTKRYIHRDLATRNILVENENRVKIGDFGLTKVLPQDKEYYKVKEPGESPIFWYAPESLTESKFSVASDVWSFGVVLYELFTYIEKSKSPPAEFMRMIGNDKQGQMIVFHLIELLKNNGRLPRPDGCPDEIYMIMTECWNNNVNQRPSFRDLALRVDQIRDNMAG

[18] = target: Cyclin-dependent kinase 7 (Homo sapiens, UniProt P50613);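 further: value comes from a kinome-wide kinase profiling panel in which CDK7 is one member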
[19] = target: Macrophage colony-stimulating factor 1 receptor (Homo sapiens, UniProt P07333);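 further: value comes from the Navigating the Kinome screening panel, CSF1R member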
[20] = target: Serine/threonine-protein kinase pim-1 (Homo sapiens, UniProt P11309)
[21] = target: Dual specificity tyrosine-phosphorylation-regulated kinase 1B (Homo sapiens, UniProt Q9Y463); experiment: Navigating the Kinome. Panel member name: DYRK1B
[22] = target: cAMP-dependent protein kinase catalytic subunit alpha (Homo sapiens, UniProt P17612)
[23] = target: Macrophage-stimulating protein receptor (Homo sapiens, UniProt Q04912); experiment: Navigating the Kinome. Panel member name: MST1R
[24] = target: Calcium/calmodulin-dependent protein kinase type II subunit alpha (Homo sapiens, UniProt Q9UQM7); experiment: Navigating the Kinome. Panel member name: CAMK2A
[25] = target: Dual specificity mitogen-activated protein kinase kinase 1 (Homo sapiens, UniProt Q02750); experiment: Navigating the Kinome. Panel member name: MAP2K1
[26] = target: 5'-AMP-activated protein kinase catalytic subunit alpha-1 (Homo sapiens, UniProt Q13131)
[27] = target: Glycogen synthase kinase-3 beta (Homo sapiens, UniProt P49841);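 further: value comes from a broad kinome profiling panel, with GSK3B as the panel member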
Chain of Glycogen synthase kinase-3 beta (P49841 whole entry): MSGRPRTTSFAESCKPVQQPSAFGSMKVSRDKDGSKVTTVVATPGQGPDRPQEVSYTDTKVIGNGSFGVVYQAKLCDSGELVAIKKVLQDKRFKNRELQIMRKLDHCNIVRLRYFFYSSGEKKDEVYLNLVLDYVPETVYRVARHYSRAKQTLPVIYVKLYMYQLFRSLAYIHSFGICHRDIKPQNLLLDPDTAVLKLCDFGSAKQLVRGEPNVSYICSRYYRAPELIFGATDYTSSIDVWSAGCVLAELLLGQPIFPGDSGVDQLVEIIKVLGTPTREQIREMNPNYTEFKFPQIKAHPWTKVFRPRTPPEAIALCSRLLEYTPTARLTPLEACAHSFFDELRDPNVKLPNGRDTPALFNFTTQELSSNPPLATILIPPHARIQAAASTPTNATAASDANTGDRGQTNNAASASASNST

[28] = target: Leukocyte tyrosine kinase receptor (Homo sapiens, UniProt P29376); experiment: Navigating the Kinome. Panel member name: LTK
[29] = target: Hepatocyte growth factor receptor (Homo sapiens, UniProt P08581);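 further: kinase panel profiling across the kinome, with MET as the panel member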

Chain of Platelet-derived growth factor receptor beta (P09619 whole entry): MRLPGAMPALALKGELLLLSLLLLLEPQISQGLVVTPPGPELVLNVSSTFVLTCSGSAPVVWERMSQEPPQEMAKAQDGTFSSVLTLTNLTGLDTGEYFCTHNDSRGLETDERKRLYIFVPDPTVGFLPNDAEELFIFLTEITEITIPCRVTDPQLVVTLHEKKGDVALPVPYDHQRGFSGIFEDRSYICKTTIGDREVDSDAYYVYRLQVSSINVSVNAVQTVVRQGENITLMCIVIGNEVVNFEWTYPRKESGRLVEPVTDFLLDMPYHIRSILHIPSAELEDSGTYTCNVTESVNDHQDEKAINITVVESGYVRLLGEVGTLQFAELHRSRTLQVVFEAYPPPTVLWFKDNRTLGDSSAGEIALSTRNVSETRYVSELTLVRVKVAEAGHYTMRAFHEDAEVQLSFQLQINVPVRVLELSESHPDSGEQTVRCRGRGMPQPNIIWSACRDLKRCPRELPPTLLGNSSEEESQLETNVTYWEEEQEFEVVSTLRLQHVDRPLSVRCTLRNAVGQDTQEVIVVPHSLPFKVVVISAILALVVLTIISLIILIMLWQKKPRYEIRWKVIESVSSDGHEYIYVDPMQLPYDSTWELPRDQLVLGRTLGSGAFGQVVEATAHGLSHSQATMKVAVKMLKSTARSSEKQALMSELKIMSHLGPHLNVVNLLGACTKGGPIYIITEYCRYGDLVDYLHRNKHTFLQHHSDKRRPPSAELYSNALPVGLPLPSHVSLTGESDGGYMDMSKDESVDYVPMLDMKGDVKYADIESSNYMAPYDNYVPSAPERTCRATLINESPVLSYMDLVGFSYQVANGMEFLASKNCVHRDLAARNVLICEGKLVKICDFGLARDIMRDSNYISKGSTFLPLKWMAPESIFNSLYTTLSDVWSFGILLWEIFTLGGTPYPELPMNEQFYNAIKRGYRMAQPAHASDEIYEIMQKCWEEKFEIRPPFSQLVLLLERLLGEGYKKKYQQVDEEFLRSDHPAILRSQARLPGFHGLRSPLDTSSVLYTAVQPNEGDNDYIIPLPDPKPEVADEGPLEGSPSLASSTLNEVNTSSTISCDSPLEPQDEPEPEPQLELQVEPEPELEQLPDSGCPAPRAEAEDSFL

Ki [1]: 2510 nM (active)
Ki [2]: 2000 nM (active)
Ki [3]: 2510 nM (active)
Ki [4]: 1000 nM (active)
Ki (LIM domain kinase 1): 1260 nM (active)
Ki (Activated CDC42 kinase 1): 1000 nM (active)
Ki [5]: 2000 nM (active)
Ki [6]: 794 nM (active)
Ki [7]: 1580 nM (active)
Ki [8]: 1000 nM (active)
Ki [9]: 1580 nM (active)
Ki [10]: 1260 nM (active)
Ki (Aurora kinase A): 1580 nM (active)
Ki [11]: 2000 nM (active)
Ki [12]: 794 nM (active)
Ki [13]: 2510 nM (active)
Ki (Focal adhesion kinase 1): 5010 nM (active)
Ki [14]: 1260 nM (active)
Ki [15]: 2000 nM (active)
Ki [16]: 5010 nM (active)
Ki [17]: 2000 nM (active)
Ki [18]: 2510 nM (active)
Ki [19]: 2000 nM (active)
Ki [20]: 3980 nM (active)
Ki [21]: 1260 nM (active)
Ki [22]: 1260 nM (active)
Ki [23]: 2510 nM (active)
Ki [24]: 1260 nM (active)
Ki [25]: 2510 nM (active)
Ki [26]: 1260 nM (active)
Ki [27]: 1260 nM (active)
Ki [28]: 794 nM (active)
Ki [29]: 1000 nM (active)
Structure (SMILES): CC(=O)Nc1ccc(-n2nc3ccc(N)nc3n2)cc1

Source: ChEMBL document CHEMBL1201862, “PubChem BioAssay data set” (2004)
